The record followed here is patent US8586357B2, “Markers of definitive endoderm” (ViaCyte, Inc., priority 2003, dated 2013).

Test [1] has as its system definitive endoderm cells vs hESCs. Nature of the test: Gene chip analysis (Affymetrix U133 Plus 2.0) of purified definitive endoderm compared to hESCs. Format: cell-based, human. The method, then: In the following experiment, RNA was isolated from purified definitive endoderm and human embryonic stem cell populations. Gene expression was then analyzed by gene chip analysis of the RNA from each purified population. Q-PCR was also performed to further investigate the potential of genes expressed in definitive endoderm, but not in embryonic stem cells, as a marker for definitive endoderm. Human embryonic stem cells (hESCs) were maintained in DMEM/F12 media supplemented with 20% KnockOut Serum Replacement, 4 ng/mL recombinant human basic fibroblast growth factor (bFGF), 0.1 mM 2-mercaptoethanol, L-glutamine, non-essential amino acids and penicillin/streptomycin. hESCs were differentiated to definitive endoderm by culturing for 5 days in RPMI media supplemented with 100 ng/mL of recombinant human activin A, fetal bovine serum (FBS), and penicillin/streptomycin. The concentration of FBS was varied each day as follows: 0.1% (first day), 0.2% (second day), 2% (days 3-5). Cells were isolated by fluorescence activated cell sorting (FACS) in order to obtain purified populations of hESCs and definitive endoderm for gene expression analysis. […] Cells were dissociated using trypsin/EDTA (Invitrogen, cat#25300-054), washed in phosphate buffered saline (PBS) containing 2% human serum and resuspended in 100% human serum on ice for 10 minutes to block non-specific binding. Staining was carried out for 30 minutes on ice by adding 200 uL of phycoerythrin-conjugated antibody to 5×10^6 cells in 800 uL human serum. Cells were washed twice with 8 mL of PBS buffer and resuspended in 1 mL of the same. FACS isolation was carried out by the core facility of The Scripps Research Institute using a FACS Vantage (BD Biosciences). Cells were collected directly into RLT lysis buffer and RNA was isolated by RNeasy according to the manufacturers instructions (Qiagen). Purified RNA was submitted in duplicate to Expression Analysis (Durham, N.C.) for generation of the expression profile data using the Affymetrix platform and U133 Plus 2.0 high-density oligonucleotide arrays. Data presented is a group comparison that identifies genes differentially expressed between the two populations, hESCs and definitive endoderm. […] The “Gene_Symbol” column refers to the unique name given to the gene by the HUGO Gene Nomenclature Committee. The “Raw Fold Change” column refers to the fold difference in signal for each gene in definitive endoderm compared to hESCs. The “Unigene,” “LocusLink,” and “OMIM” columns refer to identifiers that are descriptive and functional annotations derived from current National Center for Biotechnology Information (NCBI) releases of the UniGene, LocusLink, OMIM, and HomoloGene publicly available databases. […]

Test [2] has as its system human definitive endoderm cells. As to the kind of experiment: Differentiation factor screening: Q-PCR of albumin, PROX1 and TITF1. In kind it is cell-based. The method, then:
To exemplify the differentiation factor screening methods described herein, populations of human definitive endoderm cells produced using the methods described herein were separately provided with several candidate differentiation factors while determining the normalized expression levels of certain marker gene products at various time points.
Human definitive endoderm cells were produced as described in the foregoing Examples. In brief, hESCs cells were grown in the presence of 100 ng/ml activin A in low serum RPMI medium for four days, wherein the fetal bovine serum (FBS) concentration on day 1 was 0%, on day 2 was 0.2% and on days 3-4 was 2%. After formation of definitive endoderm, beginning on day 5 and ending on day 10, cell populations maintained in individual plates in RPMI containing 0.2% FBS were treated with one of: Wnt3A at 20 ng/ml, FGF2 at 5 ng/ml or FGF2 at 100 ng/ml. The expression of marker gene products for albumin, PROX1 and TITF1 were quantitated using Q-PCR.

For test [3], the system named is definitive endoderm cells. Nature of the test: Maintenance and expansion of definitive endoderm cells in culture in the presence of activin. In kind it is cell-based, human. From the text: Definitive endoderm cells produced by methods described herein have been maintained and expanded in culture in the presence of activin for greater than 50 days without appreciable differentiation. In such cases, SOX17, CXCR4, MIXL1, GATA4, HNF3β expression is maintained over the culture period. Additionally, TM, SPARC, OCT4, AFP, SOX7, ZIC1 and BRACH were not detected in these cultures. It is likely that such cells can be maintained and expanded in culture for substantially longer than 50 days without appreciable differentiation.

Test [4] deals with hESCs (hESCyt-25). As to the kind of experiment: Q-PCR gene expression assay of marker genes in differentiating hESCs. Conditions: Wnt3a added to activin A and activin B treated cultures; FIG. 23. In kind it is cell-based, human. The method, then: In the following experiments, real-time quantitative RT-PCR (Q-PCR) was the primary assay used for screening the effects of various treatments on HESC differentiation. In particular, real-time measurements of gene expression were analyzed for multiple marker genes at multiple time points by Q-PCR. Marker genes characteristic of the desired as well as undesired cell types were evaluated to gain a better understanding of the overall dynamics of the cellular populations. The strength of Q-PCR analysis includes its extreme sensitivity and relative ease of developing the necessary markers, as the genome sequence is readily available. Furthermore, the extremely high sensitivity of Q-PCR permits detection of gene expression from a relatively small number of cells within a much larger population. In addition, the ability to detect very low levels of gene expression provides indications for “differentiation bias” within the population. The bias towards a particular differentiation pathway, prior to the overt differentiation of those cellular phenotypes, is unrecognizable using immunocytochemical techniques. […] Additionally, Q-PCR provides a mechanism by which to evaluate the success of a differentiation protocol in a quantitative format at semi-high throughput scales of analysis.
The approach taken here was to perform relative quantitation using SYBR Green chemistry on a Rotor Gene 3000 instrument (Corbett Research) and a two-step RT-PCR format. Such an approach allowed for the banking of cDNA samples for analysis of additional marker genes in the future, thus avoiding variability in the reverse transcription efficiency between samples.
Primers were designed to lie over exon-exon boundaries or span introns of at least 800 bp when possible, as this has been empirically determined to eliminate amplification from contaminating genomic DNA.
We routinely used Q-PCR to measure the gene expression of multiple markers of target and non-target cell types in order to provide a broad profile description of gene expression in cell samples. The markers relevant for the early phases of hESC differentiation (specifically ectoderm, mesoderm, definitive endoderm and extra-embryonic endoderm) and for which validated primer sets are available are provided below in Table 1. […] This is an important fact since the hESCs were often grown on mouse feeder layers. Most typically, triplicate samples were taken for each condition and independently analyzed in duplicate to assess the biological variability associated with each quantitative determination.
To generate PCR template, total RNA was isolated using RNeasy (Qiagen) and quantitated using RiboGreen (Molecular Probes). Reverse transcription from 350-500 ng of total RNA was carried out using the iScript reverse transcriptase kit (BioRad), which contains a mix of oligo-dT and random primers. Each 20 μL reaction was subsequently diluted up to 100 μL total volume and 3 μL was used in each 10 μL Q-PCR reaction containing 400 nM forward and reverse primers and 5 μL 2×SYBR Green master mix (Qiagen). Two step cycling parameters were used employing a 5 second denature at 85-94° C. (specifically selected according to the melting temp of the amplicon for each primer set) followed by a 45 second anneal/extend at 60° C. Fluorescence data was collected during the last 15 seconds of each extension phase. A three point, 10-fold dilution series was used to generate the standard curve for each run and cycle thresholds (Ct's) were converted to quantitative values based on this standard curve. The quantitated values for each sample were normalized to housekeeping gene performance and then average and standard deviations were calculated for triplicate samples. At the conclusion of PCR cycling, a melt curve analysis was performed to ascertain the specificity of the reaction. A single specific product was indicated by a single peak at the Tm appropriate for that PCR amplicon. […]

Where [5] appears, read: fold difference in gene chip signal (Affymetrix U133 Plus 2.0) for each gene in CXCR4-purified definitive endoderm (5 days, 100 ng/mL activin A) compared to SSEA4-purified hESCs.
The mark [6] stands for this setting: fold difference in signal for each gene in definitive endoderm (CXCR4-purified, 5 days 100 ng/mL activin A) compared to hESCs (SSEA4-purified), Affymetrix U133 Plus 2.0.

Turning to APOA1, the “Raw Fold Change” value in test [1] (setting [5]) was found to be 15.05 fold.

As for BMP2, the “Raw Fold Change” value in test [1] (setting [5]) was 7.76 fold.

“FGF2: growth factor; candidate differentiation factor”: the “expression of the TITF1 marker gene as compared to definitive endoderm cells on day 4” value in test [2] (100 ng/ml FGF2, days 7, 9 and 10, FIG. 36C) is listed as “substantially increased”. The “expression of the TITF1 gene product as compared to untreated definitive endoderm” value in test [2] (FGF2 at 5 ng/ml, FIG. 36C) is “very little effect”. The “expression of the albumin gene product as compared to definitive endoderm cells on day 4” value was “substantially increased” in test [2] (FGF2 at 5 ng/ml, days 9 and 10, FIG. 36A); “not increased” in test [2] (FGF2 at 100 ng/ml, days 9 and 10, FIG. 36A).

Turning to NODAL, the “Raw Fold Change” value in test [1] (setting [6]) amounted to 7.89 fold.

For NPPB, the “Raw Fold Change” value in test [1] (setting [6]) is recorded as 35.43 fold.

Turning to activin, the “time definitive endoderm cells maintained and expanded in culture without appreciable differentiation” value in test [3] was “greater than 50 days”.

B1: Wnt3A: Wnt family growth factor; candidate differentiation factor (protein, UniProt P56704 19-352, looked up)
Protein Wnt-3a: SYPIWWSLAVGPQYSSLGSQPILCASIPGLVPKQLRFCRNYVEIMPSVAEGIKIGIQECQHQFRGRRWNCTTVHDSLAIFGPVLDKATRESAFVHAIASAGVAFAVTRSCAEGTAAICGCSSRHQGSPGKGWKWGGCSEDIEFGGMVSREFADARENRPDARSAMNRHNNEAGRQAIASHMHLKCKCHGLSGSCEVKTCWWSQPDFRAIGDFLKDKYDSASEMVVEKHRESRGWVETLRPRYTYFKVPTERDLVYYEASPNFCEPNPETGSFGTRDRTCNVSSHGIDGCDLLCCGRGHNARAERRREKCRCVFHWCCYVSCQECTRVYDVHTCK
As to B1, the “SOX17 gene expression over that of activins alone” value in test [4] is “increases”. In addition, in test [2] (20 ng/ml Wnt3A, days 9 and 10, FIG. 36A), the “expression of the albumin gene product as compared to untreated definitive endoderm cells” value is listed as “increased”.
